Measurements as given in patent publication US7226761B2, “Manufacture of five-carbon sugars and sugar alcohols” (Danisco Sweeteners Oy, priority 1992, dated 2007).
Read-outs that look alike come from different tables or passages of the source.

Key:
[1] = system: TKL1,2 deficient strain harboring the XDH encoding gene from P. stipitis on a multi-copy plasmid (H1057); conditions: for Polyols from glucose consumed in %: 25 μM IA
Experimental: TKL1,2 deficient strain H1055 carrying the pAOS67 multi-copy plasmid harboring the XDH encoding gene from P. stipitis (H1057) was cultivated in the presence of 25 μM IA (Fluka Chemie AG, Switzerland). The growth medium was SCD lacking histidine for plasmid selection and 7.65 g/l KNO3. Samples were withdrawn at the indicated time points, the OD600 measured, cells removed by centrifugation, and the growth medium samples were assayed for polyols by the Boehringer Mannheim D-sorbitol/xylitol kit and for glucose by the Boehringer Mannheim GOD-Perid kit.

[2] = target: T1, DOG1 (Saccharomyces cerevisiae, UniProt P38774); test: Specificity of DOG1 towards sugar phosphates in yeast cell extracts (phosphate release); format: biochemical, S. cerevisiae; conditions: 20 mM substrate; cell extract of H1514; relative to 2-deoxyglucose-6-P as 100%
T1 construct: expressed in transfected cells; host or cells: S. cerevisiae H1104 (W303-1B) transformed with plasmid B1020 (YEplac195, ADH1 promoter-DOG1-ADH1 terminator) = strain H1514; crude cell extract
T1 sequence (P38774 1-246): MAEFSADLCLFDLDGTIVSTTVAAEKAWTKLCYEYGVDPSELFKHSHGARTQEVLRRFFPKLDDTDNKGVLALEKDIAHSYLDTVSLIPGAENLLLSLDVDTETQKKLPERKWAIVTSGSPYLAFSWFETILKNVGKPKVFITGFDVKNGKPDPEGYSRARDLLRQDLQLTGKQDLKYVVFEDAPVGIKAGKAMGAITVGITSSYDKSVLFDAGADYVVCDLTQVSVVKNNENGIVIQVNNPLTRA
Experimental: The specificity of DOG1 towards xylulose-5-P, ribulose-5-P, ribose-5-P and 2-deoxyglucose-6-P was determined using 20 mM substrate concentrations. Yeast cell extracts were prepared as described in example 15, except that 50 mM imidazole-HCl, 10 mM MgCl2 buffer, pH 6.0 was used. 10 μl of extract and 210 μl of substrate (20 mM) in the same buffer was incubated for 30 min, 30° C. The reaction was stopped with final 2% of TCA and the phosphate released was measured using ammonium molybdate (15 mM), zinc acetate (100 mM), pH 5.0 as the reagent. The formation of molybdenum blue was measured at 350 nm, and quantified by phosphate standards (Sanz, P. et al., Yeast 10:1195–1202 (1994); Bencini, D. A. et al., Anal. Biochem. 132:254–258 (1983)).

[3] = Xylulose 5-phosphate reductase (XPDH/APDH) activity assay with NADH; format: biochemical; conditions: cell extract of transformed B. subtilis BD170; xylulose 5-phosphate usually 5 mM
Experimental: The strain BD 170 [pGTK24(MXD2)] as well as untransformed strain BD 170 was grown overnight on either LB or LB, containing 10% glucose, cell extracts were prepared and the XDH activity measured. The assay conditions for measuring XDH activity were: 30° C., 50 mM Tris-HCI, pH 7.0, 0.2 mM NADH and 10 mM D-xylulose. Changes of absorption at 340 nm were recorded; one unit of activity was defined as the amount of enzyme that catalyzed the reduction of one […] of substrate per minute under the conditions of assay (assuming the differential absorption coefficient NADH/NAD^+ to be equal to […]). The following levels of XDH activity were measured in the strain BD170 [pGTK24(MXD2)] grown on the two media: LB—0.5 U/mgproteins, LB-glucose 0.05–0.15 U/mgprotein. Thus, glucose appeared to repress the activity of the aldolase promoter 3–10 fold. No XDH activity could be detected in the strain BD170 grown on either of the two media.
B. subtilis strain BD170 was transformed with pGTK74(LRXPDH) and pGTK74(BHDH2). The transformants were grown overnight in LB containing 25 mg/liter kanamycin, cell extract were prepared by sonication and the activity of XPDH activity was measured. The conditions for measuring the XPDH activity were similar to those used for measuring the xylitol dehydrogenase activity except that xylulose 5-phosphate was used as the substrate (usually at 5 mM concentration) instead of xylulose. The activities were approximately 0.3 U/mg protein for the XPDH from L. rhamnosus and about 0.5 U/mg protein for B. halodurans enzyme.
Enterococcus avium ATCC 35655 was cultivated at 30° C. in 5 liters of a medium containing: peptone—10 g/l, yeast extract—5 g/l, beef extract 10 g/l, K2HPO4 2 g/l, NaCl—5 g/l, MgSO4—0.02 g/l, MnCl2—0.05 g/l, ammonium citrate 2 g/l, Tween 20—1.1 ml/l, xylitol—20g/l, pH 6.5. […]

[4] = Stereospecificity of D-xylulose 5-phosphate reduction, products dephosphorylated and analyzed by HPLC; format: biochemical; conditions: 10 mM xylulose 5-phosphate, 10 mM NADH, pH 7.0, 37° C.
Experimental: The stereospecificity of xylulose-phosphate reduction by the B. halodurans XPDH was verified by the following procedure. The reaction between D-xylulose 5-phosphate and NADH was conducted at 37° C. for several hours under the following conditions: 100 mM Tris-HC buffer, pH 7.0, 10 mM xylulose 5-phosphate, 10 mM NADH, […] the enzyme lysate. The reaction products were dephosphorylated with alkaline phosphatase and analyzed by HPLC. […] It should be noted that among the highest-scoring four homologues of the L. rhamnosus XPDH, the enzyme from B. holodurans is the least homologous. This can be interpreted as an indication that the other three homologues (SEQ ID NO:51, 52 and 53) are most probably also xylitol-phosphate dehydrogenases.
The stereospecificity of D-xylulose 5-phosphate reduction by the E. avium arabitol-phosphate dehydrogenase was verified by the following procedure. The reaction between D-xylulose 5-phosphate and NADH was conducted at 37° C. for several hours under the following conditions: 100 mM Tris-HCl buffer, pH 7.0, 10 mM xylulose 5-phosphate, 10 mM NADH, 1U of the enzyme. The reaction products were dephosphorylated with alkaline phosphatase and analyzed by HPLC. […] There are no other arabitol-phosphate dehydrogenases described in the art.
Both arabitol-phosphate dehydrogenase genes were expressed using the same tools and methods as those used for the expression of xylitol-phosphate dehydrogenases (Example 26). Briefly, the coding regions of the two arabitol-phosphate dehydrogenase genes were amplified using the chromosomal DNA of the microorganism from which the enzyme was isolated and the appropriate PCR primers. In the case of E. avium the primers were oAPDH 51 […] SEQ ID NO: 71) and the anti-sense primer oAPDH 31 […]) SEQ ID NO: 72. For B. halodurans, the sense primer was oBHDH 5 ([…], SEQ ID NO: 73) and the anti-sense primer was oBHDH 3 ([…], SEQ ID NO: 74). […] The stereospecificity of D-xylulose 5-phosphate reduction by the previously unknown enzyme from B. halodurans was determined as described in Example 30.

## O=C(O)CI [iodacetate, iodoacetate]
[1]; 28 h
  Polyols from glucose consumed in %: 0.45%
[1]; 45 h
  Polyols from glucose consumed in %: 0.74%
[1]; 52 h
  Polyols from glucose consumed in %: 0.57%
[1]; 69 h
  Polyols from glucose consumed in %: 0.72%
[1]; 77 h
  Polyols from glucose consumed in %: 0.87%
[1]; 93 h
  Polyols from glucose consumed in %: 0.93%
[1]; 100 h
  Polyols from glucose consumed in %: 1.13%
[1]; in the presence of iodoacetate
  glucose consumed metabolised to polyols (xylitol+part of ribitol): 1.2%
[1]; in the presence of iodoacetate vs without
  increase in polyol production: about 30%

## O=C(CO)[C@@H](O)[C@H](O)COP(=O)(O)O [xylulose-5-P, Xylulose-5-phosphate]
[2]
  Relative activity (20 mM): 15%

B1: B. halodurans enzyme: xylitol-phosphate dehydrogenase from B. halodurans, SEQ ID NO:50, expressed from pGTK74(BHDH2) (protein)
chain: MKALNLYGIQDLRFEETPAPSIEHDDDIIIKVKAVGICGSDLSRYKKLGPYVPGMTFGHEFAGEVVKIGRSVTGFSIGDRVAACPTYTCGQCRYCQLGEPTRCERLSVIGARHPGAYAEYVKLPAKHVIPLPNVVNYDEAALIEPASVVAHGFYRTNIKPGASVAIMGVGSIGLLAVQWAKIFGATTVFAIDIDEQKLNVANQLGADVLISSLQRPAHKQILEYTNGIGVDVAVESAGTPSTSAQVFALPKKGGEVVFLGIPYADVQIERFYFEKIVRNELHVYGSWNALSSPFPGKEWATTIHYMSSGQLNVAPMISYRLPLAKGPETFQQIAKGELKPTKVLFYPEKLSERK
modifications: Bacillus halodurans
[3]
  XPDH activity: about 0.5 U/mg protein
[4]
  products found in the reaction mixture / stereospecificity: Only xylitol and xylulose (corresponding to the unreacted xylulose 5-phosphate) but no arabitol were found

B2: enzyme from B. halodurans: D-arabitol-phosphate dehydrogenase from B. halodurans, SEQ ID NO:70, expressed from pGTK74(BHDH) (protein)
chain: MKALVKTQHGTGHFAVQEKPEPTPGKHQVKIKVKYTGVCGSDIHTYEGHYPVAAPVTLGHEFSGEIVELGEGVTGFNVGDRVTSETTYSICGKCSYCTSGDYNLCSHRKGLGNQQDGSFAKYVIARQESLHHLPAGVDDRSAAMTEPLACTHHAIAKTSINKGDLVVVTGPGPIGLLAAQVAKSHGGTVIITGLSNDQVRLKKAKEVGIDYAIDTQEVDIKELVSELTDGYGADVVLECSGAVPAAKQGIDLLRKKGQYAQVGLFAQPEIQFNFEKIIQKEISVVGSRSQKPADWEPALSLLNEKKVNAKTLVTHEYTISEWDKAYHAIKSGEAIKVLLTPID
modifications: Bacillus halodurans (deduced sequence)
[4]
  products found in the reaction mixture / stereospecificity: this enzyme is indeed a D-arabitol-phosphate dehydrogenase

B3: XPDH from L. rhamnosus: xylitol-phosphate dehydrogenase from Lactobacillus rhamnosus, SEQ ID NO:49 (protein, listed as Lactobacillus rhamnosus)
chain: MKASMLEDLNKFSVKEIDIPSPKKDEVVVKVMAAGTCGSDSHKMISGWKYGYPAVMGHEFSGIVTQLGENVSNVSVGQHVAVAPFIPCFKCHYCQIGLFQMCENYSMLGQQKFGGFEQYVSVPARNVLDIGKMSFEEGALIEPMAVAAHAVMGIKPELGDTVAVFGLGTVGDLVVRLLISSGATNVIGIDIDDQKLEKGLDEGCTHVINSAKESLEEKIMEYTDGLGVDISMECAGSKITEEQTLLVTKRRGKVGFVGIAYSDVLLHQKAFENIFRHELTVTGFWNSYSAPFPGREWTNSIQLVNRGRIKIKDLITHRFELEDMQKAFNMITTRSESFNKVMFFPNGIN
[3]
  XPDH activity: approximately 0.3 U/mg protein
